Measured values from patent US20240294522A1 (Lead Discovery Center GmbH, priority 2021, published 2024).

Assays:
[1] = molecular target: T1, GRK2 (Homo sapiens, UniProt P25098); test: Lance Kinase Activity Assay, GRK2; conditions: biochemical Lance kinase activity assay; class symbols A-F; read-out: GRK2 LANCE Assay (IC-50)
T1 construct: purchased Thermo Scientific
T1 sequence (P25098 1-689): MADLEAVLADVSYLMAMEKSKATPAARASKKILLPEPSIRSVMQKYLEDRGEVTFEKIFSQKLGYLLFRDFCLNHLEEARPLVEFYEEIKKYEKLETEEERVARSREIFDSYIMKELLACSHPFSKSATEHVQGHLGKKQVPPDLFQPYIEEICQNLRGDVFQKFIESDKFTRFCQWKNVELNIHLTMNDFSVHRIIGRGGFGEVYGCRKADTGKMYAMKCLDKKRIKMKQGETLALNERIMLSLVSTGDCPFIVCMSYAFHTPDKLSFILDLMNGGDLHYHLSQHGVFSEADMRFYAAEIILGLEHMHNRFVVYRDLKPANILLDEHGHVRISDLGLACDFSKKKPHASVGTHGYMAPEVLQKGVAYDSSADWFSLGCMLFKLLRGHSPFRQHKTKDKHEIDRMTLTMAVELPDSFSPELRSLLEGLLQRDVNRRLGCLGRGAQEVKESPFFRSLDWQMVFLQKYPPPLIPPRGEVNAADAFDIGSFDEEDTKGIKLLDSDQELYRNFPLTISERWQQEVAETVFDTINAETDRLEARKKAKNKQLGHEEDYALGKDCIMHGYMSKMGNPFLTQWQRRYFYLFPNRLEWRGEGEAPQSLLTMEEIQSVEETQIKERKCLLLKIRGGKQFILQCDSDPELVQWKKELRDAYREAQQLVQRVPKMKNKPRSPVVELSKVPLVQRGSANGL
Description: (§1) This protocol describes how the Lance Kinase Activity Assay was performed to determine IC50 values of compounds of general formula (I) against GRK5 and GRK2.
(§2) The principle behind this enzymatic assay is based upon the phosphorylation of the Ulight-peptide substrate. It is detected by using a specific EU-labeled anti-phospho peptide antibody. The binding of the Eu labeled anti-phospho peptide antibody to the phosphorylated ULight labeled peptide gives rise to a FRET-signal. Binding of an inhibitor to the kinase prevents phosphorylation of the Ulight-substrate, resulting in a loss of FRET. In tables 2 and 3 the relevant information for these two LANCE assays is summarized.
(§3) For every sample, 2 μl of assay buffer (50 mM HEPES pH 7,5, 10 mM MgCL2, 1 mM EGTA 0,01% Tween 20, 1% DMSO, 2 mM DTT) were transferred into a suitable assay plate (e.g. Corning #3673). Compounds were added in a concentration range from 10 μM to 0.0025 μM using an acoustic dispenser (Echo520 from Labcycte, San Jose, USA) equipped with Echo Dose Response software. After that 6 μl of kinase-substrate mix was added. Reaction was started by addition of 2 μl ATP working solution and mixed using a Bioshake 5000 microplate shaker (Q Instruments, Jena, Germany).
(§4) After 1 h incubation at room temperature the reaction was stopped with 10 μl detection mix containing the Eu-labeled phosphospecific antibody and 10 mM EDTA. After a second incubation period of 1 h at room temperature the FRET signal was measured at 340 nm excitation, 665 nm and 615 nm emission (for the ULight-substrate and Eu-AB, respectively) with an Envision microplate reader (Perkin Elmer, Waltham, MA, USA) with 50 μs delay and 300 μs integration time. IC50 values were determined from the sigmoidal dose response curves with the software Quattro Workflow (Quattro GmbH, Munich, Germany).
(§5) Inhibition is indicated as IC50 [nM] (“−”=not measured). Compounds having an activity designated as “A” provided an IC50≤50 nM; compounds having an activity designated as “B” provided an 50 nM<IC50≤100 nM; compounds having an activity designated as “C” provided an 100 nM<IC50≤500 nM; compounds having an activity designated as “D” provided an 500 nM<IC50≤1000 nM; compounds having an activity designated as “E” provided an 1000 nM<IC50≤10000 nM; and compounds having an activity designated as “F” provided an IC50>10000 nM.

[2] = molecular target: T2, GRK5 (Homo sapiens, UniProt P34947); test: Lance Kinase Activity Assay, GRK5; conditions: biochemical Lance kinase activity assay; class symbols A-F; read-out: GRK5 LANCE Assay (IC-50)
T2 construct: purchased Thermo Scientific
T2 sequence (P34947 whole entry): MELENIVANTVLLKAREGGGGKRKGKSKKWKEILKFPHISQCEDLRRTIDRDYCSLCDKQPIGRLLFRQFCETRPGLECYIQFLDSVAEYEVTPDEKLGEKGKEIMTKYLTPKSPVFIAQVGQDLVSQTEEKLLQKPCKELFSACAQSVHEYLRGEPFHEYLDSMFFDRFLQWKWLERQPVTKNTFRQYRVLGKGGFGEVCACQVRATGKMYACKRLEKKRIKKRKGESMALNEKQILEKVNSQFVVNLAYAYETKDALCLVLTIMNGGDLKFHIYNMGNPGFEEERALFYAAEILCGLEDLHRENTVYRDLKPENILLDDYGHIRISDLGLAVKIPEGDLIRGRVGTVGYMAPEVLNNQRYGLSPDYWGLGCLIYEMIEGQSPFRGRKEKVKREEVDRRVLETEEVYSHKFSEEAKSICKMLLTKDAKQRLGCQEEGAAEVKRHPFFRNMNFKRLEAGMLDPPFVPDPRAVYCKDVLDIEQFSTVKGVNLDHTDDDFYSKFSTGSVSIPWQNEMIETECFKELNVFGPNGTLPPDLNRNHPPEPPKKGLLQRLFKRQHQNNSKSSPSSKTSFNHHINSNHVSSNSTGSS
Description: as §1, §2, §3, §4, §5

## CCN(CC)CCC(NC(=O)/C(C#N)=C/c1c[nH]c2ncccc12)c1ccccc1 (stereo not drawn) [Example 52, (E)-2-cyano-N-(3-(diethylamino)-1-phenylpropyl)-3-(1H-pyrrolo[2,3-b]pyridin-3-yl)acrylamide]
[1]
  IC50: 100 to 500 nM
[2]
  IC50: 100 to 500 nM

## N#C/C(=C\c1c[nH]c2ncc(Cl)cc12)C(=O)NCc1cc(F)cc(F)c1 [Example 75, (E)-3-(5-chloro-1H-pyrrolo[2,3-b]pyridin-3-yl)-2-cyano-N-(3,5-difluorobenzyl)acrylamide]
[1]
  IC50: > 10000 nM
[2]
  IC50: 1000 to 10000 nM

## COc1ccc([C@@H](C)NC(=O)/C=C/c2c[nH]c3ncc(-c4cc(Cl)cc(S(C)(=O)=O)c4)cc23)cc1OC [Example 247, (R,E)-3-(5-(3-chloro-5-(methylsulfonyl)phenyl)-1H-pyrrolo[2,3-b]pyridin-3-yl)-N-(1-(3,4-dimethoxyphenyl)ethyl)acrylamide]
[1]
  IC50: > 10000 nM
[2]
  IC50: ≤ 50 nM

## COc1ccc([C@@H](C)NC(=O)/C=C/c2c[nH]c3nccc(-c4ccc(OCCCN(C)C)cc4)c23)cc1OC [Example 241, (R,E)-N-(1-(3,4-dimethoxyphenyl)ethyl)-3-(4-(4-(3-(dimethylamino)propoxy)phenyl)-1H-pyrrolo[2,3-b]pyridin-3-yl)acrylamide]
[1]
  IC50: 1000 to 10000 nM
[2]
  IC50: 50 to 100 nM

## N#C/C(=C\c1c[nH]c2ncccc12)C(=O)NCc1ccc(C#N)cc1 [Example 26, (E)-2-cyano-N-(4-cyanobenzyl)-3-(1H-pyrrolo[2,3-b]pyridin-3-yl)acrylamide]
[1]
  IC50: 1000 to 10000 nM
[2]
  IC50: 1000 to 10000 nM

## O=C(/C=C/c1c[nH]c2ncc(Cl)cc12)NCc1ccccc1 [Example 6, (E)-N-benzyl-3-(5-chloro-1H-pyrrolo[2,3-b]pyridin-3-yl)acrylamide]
[1]
  IC50: 1000 to 10000 nM
[2]
  IC50: 100 to 500 nM

## COc1ccc(C(C)NC(=O)/C=C/c2c[nH]c3ncc(-c4cnn(C)c4)cc23)cc1C1CC1 (stereo not drawn) [Example 253, (E)-N-(1-(3-cyclopropyl-4-methoxyphenyl)ethyl)-3-(5-(1-methyl-1H-pyrazol-4-yl)-1H-pyrrolo[2,3-b]pyridin-3-yl)acrylamide]
[1]
  IC50: > 10000 nM
[2]
  IC50: 50 to 100 nM

## N#C/C(=C\c1c[nH]c2ncccc12)C(=O)NCc1ccc(F)c(F)c1 [Example 66, (E)-2-cyano-N-(3,4-difluorobenzyl)-3-(1H-pyrrolo[2,3-b]pyridin-3-yl)acrylamide]
[1]
  IC50: 100 to 500 nM
[2]
  IC50: 100 to 500 nM

## COc1ccc([C@@H](C)NC(=O)/C(C#N)=C/c2c[nH]c3ncc(-c4cccc(N5CCN(C)CC5)c4)cc23)cc1OC [Example 122, (R,E)-2-cyano-N-(1-(3,4-dimethoxyphenyl)ethyl)-3-(5-(3-(4-methylpiperazin-1-yl)phenyl)-1H-pyrrolo[2,3-b]pyridin-3-yl)acrylamide]
[1]
  IC50: > 10000 nM
[2]
  IC50: ≤ 50 nM

## CC[C@@H](NC(=O)/C(C#N)=C/c1c[nH]c2ncc(Cl)cc12)c1ccccc1 [Example 77, (R,E)-3-(5-chloro-1H-pyrrolo[2,3-b]pyridin-3-yl)-2-cyano-N-(1-phenylpropyl)acrylamide]
[1]
  IC50: 1000 to 10000 nM
[2]
  IC50: 100 to 500 nM

## COc1ccc([C@@H](C)NC(=O)/C=C/c2c[nH]c3nccc(-c4cnn(C)c4C)c23)cc1OC [Example 237, (R,E)-N-(1-(3,4-dimethoxyphenyl)ethyl)-3-(4-(1,5-dimethyl-1H-pyrazol-4-yl)-1H-pyrrolo[2,3-b]pyridin-3-yl)acrylamide]
[1]
  IC50: > 10000 nM
[2]
  IC50: 100 to 500 nM

## COc1ccc([C@@H](C)NC(=O)/C(C#N)=C/c2c[nH]c3ncc(-c4ccc(N5CCN(C)CC5)cc4OC)cc23)cc1OC [Example 153]
[1]
  IC50: 500 to 1000 nM
[2]
  IC50: ≤ 50 nM

## N#C/C(=C\c1c[nH]c2ncccc12)C(=O)NCc1ccc(Cl)cc1 [Example 58, (E)-N-(4-chlorobenzyl)-2-cyano-3-(1H-pyrrolo[2,3-b]pyridin-3-yl)acrylamide]
[1]
  IC50: 1000 to 10000 nM
[2]
  IC50: 100 to 500 nM

## COc1ccc([C@@H](C)NC(=O)/C=C/c2c[nH]c3nccc(-c4ccc(NS(C)(=O)=O)cc4)c23)cc1OC [Example 226, (R,E)-N-(1-(3,4-dimethoxyphenyl)ethyl)-3-(4-(4-(methylsulfonamido)phenyl)-1H-pyrrolo[2,3-b]pyridin-3-yl)acrylamide]
[1]
  IC50: 1000 to 10000 nM
[2]
  IC50: 50 to 100 nM

## C[C@@H](NC(=O)/C=C/c1c[nH]c2ncc(-c3cnn(C)c3)cc12)c1ccc(F)c(F)c1 [Example 257, (R,E)-N-(1-(3,4-difluorophenyl)ethyl)-3-(5-(1-methyl-1H-pyrazol-4-yl)-1H-pyrrolo[2,3-b]pyridin-3-yl)acrylamide]
[1]
  IC50: 100 to 500 nM
[2]
  IC50: ≤ 50 nM

## CN(C)c1ccccc1CNC(=O)/C(C#N)=C/c1c[nH]c2ncccc12 [Example 25, (E)-2-cyano-N-(2-(dimethylamino)benzyl)-3-(1H-pyrrolo[2,3-b]pyridin-3-yl)acrylamide]
[1]
  IC50: > 10000 nM
[2]
  IC50: 1000 to 10000 nM

## COc1ccc([C@@H](C)NC(=O)/C(C#N)=C/c2c[nH]c3ncc(-c4ccc5ccccc5c4)cc23)cc1OC [Example 144]
[1]
  IC50: > 10000 nM
[2]
  IC50: 100 to 500 nM

## COc1ccc([C@@H](C)NC(=O)/C=C/c2c[nH]c3ncc(-c4cc(S(C)(=O)=O)ccc4C)cc23)cc1OC [Example 248, (R,E)-N-(1-(3,4-dimethoxyphenyl)ethyl)-3-(5-(2-methyl-5-(methylsulfonyl)phenyl)-1H-pyrrolo[2,3-b]pyridin-3-yl)acrylamide]
[1]
  IC50: > 10000 nM
[2]
  IC50: ≤ 50 nM

## C[C@@H](NC(=O)/C(C#N)=C/c1c[nH]c2ncc(-c3cnn(C)c3)cc12)c1cccc(Cl)c1 [Example 96, (R,E)-N-(1-(3-chlorophenyl)ethyl)-2-cyano-3-(5-(1-methyl-1H-pyrazol-4-yl)-1H-pyrrolo[2,3-b]pyridin-3-yl)acrylamide]
[1]
  IC50: 100 to 500 nM
[2]
  IC50: ≤ 50 nM

## COc1ccc([C@@H](C)NC(=O)/C=C/c2c[nH]c3nccc(-c4ccc(CN5CCN(C)CC5)cc4)c23)cc1OC [Example 234, (R,E)-N-(1-(3,4-dimethoxyphenyl)ethyl)-3-(4-(4-((4-methylpiperazin-1-yl)methyl)phenyl)-1H-pyrrolo[2,3-b]pyridin-3-yl)acrylamide]
[1]
  IC50: 1000 to 10000 nM
[2]
  IC50: 100 to 500 nM

## COc1ccc([C@@H](C)NC(=O)/C(C#N)=C/c2c[nH]c3nccc(-c4cc(F)cc(F)c4)c23)cc1OC [Example 178]
[1]
  IC50: > 10000 nM
[2]
  IC50: 100 to 500 nM

## C[C@@H](NC(=O)/C(C#N)=C/c1c[nH]c2ncc(-c3cccc(N4CCN(C)CC4)c3)cc12)c1ccc(F)cc1 [Example 181, (R,E)-2-cyano-N-(1-(4-fluorophenyl)ethyl)-3-(5-(3-(4-methylpiperazin-1-yl)phenyl)-1H-pyrrolo[2,3-b]pyridin-3-yl)acrylamide]
[1]
  IC50: 100 to 500 nM
[2]
  IC50: ≤ 50 nM

## COc1ccc([C@@H](C)NC(=O)/C(C#N)=C/c2c[nH]c3ncc(-c4cccc(S(=O)(=O)N(C)C)c4)cc23)cc1OC [Example 149]
[1]
  IC50: 1000 to 10000 nM
[2]
  IC50: ≤ 50 nM

## COc1ccc([C@@H](C)NC(=O)/C=C/c2c[nH]c3nccc(-c4cccc(CNC(C)=O)c4)c23)cc1OC [Example 243, (R,E)-3-(4-(3-(acetamidomethyl)phenyl)-1H-pyrrolo[2,3-b]pyridin-3-yl)-N-(1-(3,4-dimethoxyphenyl)ethyl)acrylamide]
[1]
  IC50: > 10000 nM
[2]
  IC50: 100 to 500 nM
